From ChEMBL document CHEMBL1201862, “PubChem BioAssay data set” (2004)
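Tested at 5 concentrations; 48 h exposure; 96-well plates; endpoints linearly interpolated, else capped at highest concentration. The concentration for 50% growth inhibition is given as GI50.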 Active and inactive are the calls of the source. No stated cut-off is given here; in the data, active = GI50 up to about 1.1 µM and inactive = higher.

Assays:
Assay in all cases: NCI-60 cell line screen, 48 h
UO-31 = tested on: UO-31
Malme-3M = tested on: Malme-3M
SN12C = tested on: SN12C
SK-MEL-5 = tested on: SK-MEL-5
HCT-116 = tested on: HCT-116
SF-268 = tested on: SF-268
NCI/ADR-RES = tested on: NCI/ADR-RES
MCF7 = tested on: MCF7
RPMI-8226 = tested on: RPMI-8226
NCI-H23 = tested on: NCI-H23
Hs-578T = tested on: Hs-578T
HCT-15 = tested on: HCT-15
SW-620 = tested on: SW-620
OVCAR-3 = tested on: OVCAR-3
UACC-257 = tested on: UACC-257
NCI-H522 = tested on: NCI-H522
A498 = tested on: A498
NCI-H226 = tested on: NCI-H226
MDA-MB-231 = tested on: MDA-MB-231
UACC-62 = tested on: UACC-62
HCC 2998 = tested on: HCC 2998
LOX IMVI = tested on: LOX IMVI
OVCAR-8 = tested on: OVCAR-8
OVCAR-4 = tested on: OVCAR-4
HT-29 = tested on: HT-29
IGROV-1 = tested on: IGROV-1
U-251 = tested on: U-251
OVCAR-5 = tested on: OVCAR-5
ACHN = tested on: ACHN
SK-OV-3 = tested on: SK-OV-3
SNB-19 = tested on: SNB-19
K562 = tested on: K562
HL-60 = tested on: HL-60
KM12 = tested on: KM12
786-0 = tested on: 786-0
TK-10 = tested on: TK-10
CCRF-CEM = tested on: CCRF-CEM
CAKI-1 = tested on: CAKI-1
MDA-MB-435 = tested on: MDA-MB-435
SF-295 = tested on: SF-295
T47D = tested on: T47D
MOLT-4 = tested on: MOLT-4
HOP-92 = tested on: HOP-92
SK-MEL-2 = tested on: SK-MEL-2
EKVX = tested on: EKVX
A549 = tested on: A549
DU-145 = tested on: DU-145
HOP-62 = tested on: HOP-62
SK-MEL-28 = tested on: SK-MEL-28
PC-3 = tested on: PC-3
M14 = tested on: M14
MDA-N = tested on: MDA-N
RXF 393 = tested on: RXF 393
COLO 205 = tested on: COLO 205
NCI-H460 = tested on: NCI-H460
SF-539 = tested on: SF-539
SR = tested on: SR

SMILES: COc1ccc(C2OC(c3ccncc3)=NN2C)cc1F (stereo unspecified)
- GI50 (UO-31): > 100 µM (inactive)
- GI50 (Malme-3M): > 100 µM (inactive)
- GI50 (SN12C): > 100 µM (inactive)
- GI50 (SK-MEL-5): > 100 µM (inactive)
- GI50 (HCT-116): > 100 µM (inactive)
- GI50 (SF-268): > 100 µM (inactive)
- GI50 (NCI/ADR-RES): > 100 µM (inactive)
- GI50 (MCF7): > 100 µM (inactive)
- GI50 (RPMI-8226): > 100 µM (inactive)
- GI50 (NCI-H23): > 100 µM (inactive)
- GI50 (Hs-578T): > 100 µM (inactive)
- GI50 (HCT-15): > 100 µM
- GI50 (SW-620): > 100 µM (inactive)
- GI50 (OVCAR-3): > 100 µM (inactive)
- GI50 (UACC-257): > 100 µM (inactive)
- GI50 (NCI-H522): > 100 µM (inactive)
- GI50 (A498): > 100 µM (inactive)
- GI50 (NCI-H226): > 100 µM (inactive)
- GI50 (MDA-MB-231): > 100 µM (inactive)
- GI50 (UACC-62): > 100 µM (inactive)
- GI50 (HCC 2998): > 100 µM (inactive)
- GI50 (LOX IMVI): > 100 µM (inactive)
- GI50 (OVCAR-8): > 100 µM (inactive)
- GI50 (OVCAR-4): > 100 µM (inactive)
- GI50 (HT-29): > 100 µM (inactive)
- GI50 (IGROV-1): > 100 µM (inactive)
- GI50 (U-251): > 100 µM (inactive)
- GI50 (OVCAR-5): > 100 µM (inactive)
- GI50 (ACHN): > 100 µM (inactive)
- GI50 (SK-OV-3): > 100 µM (inactive)
- GI50 (SNB-19): > 100 µM (inactive)
- GI50 (K562): > 100 µM (inactive)
- GI50 (HL-60): > 100 µM (inactive)
- GI50 (KM12): > 100 µM (inactive)
- GI50 (786-0): > 100 µM (inactive)
- GI50 (TK-10): > 100 µM (inactive)
- GI50 (CCRF-CEM): > 100 µM (inactive)
- GI50 (CAKI-1): 51.4 µM (inactive)
- GI50 (MDA-MB-435): > 100 µM (inactive)
- GI50 (SF-295): > 100 µM (inactive)
- GI50 (T47D): > 100 µM (inactive)
- GI50 (MOLT-4): 41.9 µM (inactive)
- GI50 (HOP-92): > 100 µM (inactive)
- GI50 (SK-MEL-2): > 100 µM (inactive)
- GI50 (EKVX): > 100 µM (inactive)
- GI50 (A549): > 100 µM (inactive)
- GI50 (DU-145): > 100 µM (inactive)
- GI50 (HOP-62): > 100 µM (inactive)
- GI50 (SK-MEL-28): > 100 µM (inactive)
- GI50 (PC-3): > 100 µM (inactive)
- GI50 (M14): > 100 µM (inactive)
- GI50 (MDA-N): > 100 µM (inactive)
- GI50 (RXF 393): > 100 µM (inactive)
- GI50 (COLO 205): > 100 µM (inactive)
- GI50 (NCI-H460): > 100 µM (inactive)
- GI50 (SF-539): > 100 µM (inactive)

SMILES: CC1=NN(c2cccc(Cl)c2)C(=N/c2nc3ccccc3s2)/C1=C\C=C\c1ccccc1
- GI50 (UO-31): 28.4 µM (inactive)
- GI50 (SK-MEL-5): 20.6 µM (inactive)
- GI50 (HCT-116): 28.2 µM (inactive)
- GI50 (SF-268): 35.8 µM (inactive)
- GI50 (NCI/ADR-RES): 59.2 µM (inactive)
- GI50 (MCF7): 25.7 µM (inactive)
- GI50 (RPMI-8226): 18.9 µM (inactive)
- GI50 (NCI-H23): 32.1 µM (inactive)
- GI50 (Hs-578T): 24.3 µM (inactive)
- GI50 (HCT-15): 32.2 µM
- GI50 (SW-620): > 100 µM (inactive)
- GI50 (OVCAR-3): 27 µM (inactive)
- GI50 (UACC-257): 31.5 µM (inactive)
- GI50 (NCI-H522): 28.8 µM (inactive)
- GI50 (A498): 24.7 µM (inactive)
- GI50 (NCI-H226): 79.8 µM (inactive)
- GI50 (LOX IMVI): 32.2 µM (inactive)
- GI50 (OVCAR-8): 36.1 µM (inactive)
- GI50 (OVCAR-4): 45.1 µM (inactive)
- GI50 (HT-29): 33.5 µM (inactive)
- GI50 (IGROV-1): 20 µM (inactive)
- GI50 (OVCAR-5): 46.5 µM (inactive)
- GI50 (ACHN): 28 µM (inactive)
- GI50 (SK-OV-3): 34.6 µM (inactive)
- GI50 (K562): 9.23 µM (inactive)
- GI50 (HL-60): 13.8 µM (inactive)
- GI50 (KM12): 34.2 µM (inactive)
- GI50 (786-0): 41.4 µM (inactive)
- GI50 (TK-10): 34.9 µM (inactive)
- GI50 (CCRF-CEM): 1.77 µM (inactive)
- GI50 (CAKI-1): 28.4 µM (inactive)
- GI50 (SR): 0.359 µM (active)
- GI50 (MDA-MB-435): 33.8 µM (inactive)
- GI50 (SF-295): 33.5 µM (inactive)
- GI50 (T47D): 46.7 µM (inactive)
- GI50 (MOLT-4): 0.369 µM (active)
- GI50 (EKVX): 47.6 µM (inactive)
- GI50 (DU-145): 50.4 µM (inactive)
- GI50 (HOP-62): 30.8 µM (inactive)
- GI50 (SK-MEL-28): 29.3 µM (inactive)
- GI50 (M14): 42.3 µM (inactive)
- GI50 (MDA-N): 37.2 µM (inactive)
- GI50 (RXF 393): 51.4 µM (inactive)
- GI50 (NCI-H460): 29.7 µM (inactive)
- GI50 (SF-539): 43.8 µM (inactive)
